Patent US6291527A (priority 1998, dated 2001)
Structures can show the parent of a compound that is named as a salt.

Experiments:
[1] = system: inflammatory exudate (IE); test: foreign body (sponge) method in the rat: inflammatory exudate volume; type: in vivo; conditions: for IE (inflammatory exudate) volume / % inhibition versus controls of IE: oral, 8 hours, listed as KGS; for IE (inflammatory exudate) volume: mean ± MSE, controls 5.15 ± 0.28
Description: (§1) These tests involved the use of 100 male CD strain rats (Charles River, Calco, LC, Italy) weighing 180±8 g. The animals were fasted for 12 hours (water ad libitum) before being used for the experiment.
(§2) The inflammatory reaction with the formation of exudate was induced by using sterilized polyester sponges (4×1.5×0.5 cm) soaked in carrageen dissolved at a 2% concentration in sterile physiological solution. The rats were anesthetized lightly with ether and two sponges per rat were implanted subcutaneously in a previously shaven dorsal area.
(§3) The sponges were removed 8 hours later after having sacrificed the animals by ether euthanasia, and immediately placed in large polyethylene 50 ml test tubes containing 10 ml of heparinized physiological solution. The test tubes were then subjected to centrifugation (1000 rotations; 15 minutes), followed by removal of the sponges and accurate measurement of the volume of the remaining fluid. Always using the Higgs et al. method, the acid lipids present in the fluid were extracted in chloroform with prior dilution in ethanol and acidification to pH 3. After complete evaporation of the chloroform, the remaining dry residue was dissolved in physiological solution and used for the immunoenzymatic assay of prostaglandin E2 (PGE2).
(§4) All the other reagents used for the tests were purchased from Merck-Bracco (Milan, Italy).

[2] = system: prostaglandin E2 (PGE2); test: foreign body (sponge) method in the rat: PGE2 in the inflammatory exudate (immunoenzymatic assay); type: in vivo; conditions: for PGE2 concentration in the inflammatory exudate / % inhibition versus controls of PGE2: oral, 8 hours, listed as KGS; for PGE2 concentration in the inflammatory exudate: mean, controls 98.7 ± 4.7
Description: as §1, §2, §3, §4

[3] = animal studies of the three salts vs Ketoprofen acid and Ketoprofen sodium salt: distribution and kinetics; type: in vivo, experimental animals
Excerpt: The three above mentioned Ketoprofen salts were compared with Ketoprofen acid and Ketoprofen sodium salt in animal studies.

[4] = system: carrageen edema; test: carrageen edema test in the rat (hind paw volume, plethysmometer); conditions: for evolution of paw volume (delta in ml) at 1st hour / evolution of paw volume (delta in ml) at 2nd hour / evolution of paw volume (delta in ml) at 3rd hour / evolution of paw volume (delta in ml) at 4th hour / evolution of paw volume (delta in ml) at 5th hour / evolution of paw volume (delta in ml) at 6th hour: mean ± MSE; for % inhibition vs controls (paw edema AUC): p < 0.001; for AUC (mean ± MSE) of increase in paw volume: paw volume (delta in ml) vs time (0 to 6 hours), controls 4.23 ± 0.26
[5] = rat, 0.5, 1, 2 and 4 mg/kg per os
[6] = rat, oral, 1 mg/kg, listed as KGS
[7] = rat, oral, 2 mg/kg, listed as KGS

CC(C(=O)O)c1cccc(C(=O)c2ccccc2)c1 (stereo not shown) [Ketoprofen Glucosamine salt]
ED50 ([1]; Rattus norvegicus, po, 8 h, rat, 95% confidence limits KGS 1.802-2.381, KLS 2.334-3.094): 2.09 mg/kg | control of the inflammatory response to sponge implantation [1, 5]: controls the vasculo-exudative inflammatory response in a dose dependent manner | IE (inflammatory exudate) volume ([1]; rat, 0.5 mg/kg): 3.87 ± 0.27 mL | % inhibition versus controls of IE ([1]; rat, 0.5 mg/kg): 24.8% | IE (inflammatory exudate) volume ([1]; rat, 1 mg/kg): 3.56 ± 0.28 mL | % inhibition versus controls of IE ([1]; rat, 1 mg/kg): 30.9% | IE (inflammatory exudate) volume ([1]; rat, 2 mg/kg): 2.53 ± 0.22 mL | % inhibition versus controls of IE ([1]; rat, 2 mg/kg): 50.9% | IE (inflammatory exudate) volume ([1]; rat, 4 mg/kg): 1.05 ± 0.09 mL | % inhibition versus controls of IE ([1]; rat, 4 mg/kg): 79.6% | ED50 ([2]; Rattus norvegicus, po, 8 h, rat, 95% confidence limits KGS 1.848-2.131, KLS 2.215-3.005): 1.99 mg/kg | inhibition of PGE2 activity in exudates [2, 5]: singificant inhibition of PGE2 activity | PGE2 concentration in the inflammatory exudate ([2]; rat, 0.5 mg/kg): 67.6 ng/mL | % inhibition versus controls of PGE2 ([2]; rat, 0.5 mg/kg): 31.5% | PGE2 concentration in the inflammatory exudate ([2]; rat, 1 mg/kg): 60.5 ng/mL | % inhibition versus controls of PGE2 ([2]; rat, 1 mg/kg): 38.7% | PGE2 concentration in the inflammatory exudate ([2]; rat, 2 mg/kg): 49.9 ng/mL | % inhibition versus controls of PGE2 ([2]; rat, 2 mg/kg): 49.4% | PGE2 concentration in the inflammatory exudate ([2]; rat, 4 mg/kg): 24.9 ng/mL | % inhibition versus controls of PGE2 ([2]; rat, 4 mg/kg): 74.8% | active substance concentration in the inflamed site ([3]; injection, vs Ketoprofen sodium salt): much greater than that observed with Ketoprofen sodium salt | kinetic parameters after oral administration ([3]; oral, vs Ketoprofen acid and Ketoprofen sodium salt): significantly different | ED50 ([4]; Rattus norvegicus, po, read-out: oral ED50 (carrageen edema, extrapolated from AUC), rat, oral, 95% conf. lim. KGS 0.733-1.474, KLS 1.198-1.567): 1.1 mg/kg | anti-inflammatory / anti-edematogenic effect ([4]; rat, oral): dose-dependent | anti-inflammatory activity compared with Ketoprofen Lysine salt ([4]; rat, oral 0.5, 1 and 2 mg/kg): comparable | evolution of paw volume (delta in ml) at 1st hour ([4]; rat, oral, 0.5 mg/kg, controls 0.40 ± 0.02, listed as KGS): 0.28 ± 0.02 mL | evolution of paw volume (delta in ml) at 2nd hour ([4]; rat, oral, 0.5 mg/kg, controls 0.71 ± 0.02, listed as KGS): 0.51 ± 0.03 mL | evolution of paw volume (delta in ml) at 3rd hour ([4]; rat, oral, 0.5 mg/kg, controls 0.87 ± 0.03, listed as KGS): 0.62 ± 0.04 mL | evolution of paw volume (delta in ml) at 4th hour ([4]; rat, oral, 0.5 mg/kg, controls 0.93 ± 0.03, listed as KGS): 0.65 ± 0.04 mL | evolution of paw volume (delta in ml) at 5th hour ([4]; rat, oral, 0.5 mg/kg, controls 0.90 ± 0.04, listed as KGS): 0.62 ± 0.05 mL | evolution of paw volume (delta in ml) at 6th hour ([4]; rat, oral, 0.5 mg/kg, controls 0.84 ± 0.04, listed as KGS): 0.56 ± 0.05 mL | % inhibition vs controls (paw edema AUC) ([4]; rat, oral, 0.5 mg/kg): 30% | % inhibition vs controls (paw edema AUC) ([4]; rat, oral, 0.5 mg/kg, listed as KGS): 30.0% | AUC (mean ± MSE) of increase in paw volume ([4]; rat, oral, 0.5 mg/kg, listed as KGS, 0.5 mg/kg): 2.96 ± 0.15 | evolution of paw volume (delta in ml) at 1st hour [4, 6]: 0.23 ± 0.01 mL | evolution of paw volume (delta in ml) at 2nd hour [4, 6]: 0.39 ± 0.02 mL | evolution of paw volume (delta in ml) at 3rd hour [4, 6]: 0.46 ± 0.02 mL | evolution of paw volume (delta in ml) at 4th hour [4, 6]: 0.48 ± 0.02 mL | evolution of paw volume (delta in ml) at 5th hour [4, 6]: 0.45 ± 0.02 mL | evolution of paw volume (delta in ml) at 6th hour [4, 6]: 0.39 ± 0.03 mL | % inhibition vs controls (paw edema AUC) ([4]; rat, oral, 1 mg/kg): 48% | % inhibition vs controls (paw edema AUC) [4, 6]: 48.0% | AUC (mean ± MSE) of increase in paw volume ([4]; rat, oral, 1 mg/kg, listed as KGS, 1 mg/kg): 2.20 ± 0.13 | evolution of paw volume (delta in ml) at 1st hour [4, 7]: 0.11 ± 0.02 mL | evolution of paw volume (delta in ml) at 2nd hour [4, 7]: 0.20 ± 0.02 mL | evolution of paw volume (delta in ml) at 3rd hour [4, 7]: 0.26 ± 0.03 mL | evolution of paw volume (delta in ml) at 4th hour [4, 7]: 0.28 ± 0.03 mL | evolution of paw volume (delta in ml) at 5th hour [4, 7]: 0.25 ± 0.03 mL | evolution of paw volume (delta in ml) at 6th hour [4, 7]: 0.16 ± 0.02 mL | % inhibition vs controls (paw edema AUC) ([4]; rat, oral, 2 mg/kg): 72% | % inhibition vs controls (paw edema AUC) [4, 7]: 72.1% | AUC (mean ± MSE) of increase in paw volume ([4]; rat, oral, 2 mg/kg, listed as KGS, 2 mg/kg): 1.18 ± 0.06
